Several values for one entry are separate records, joined by “and”; a condition that tells them apart may be missing. Equal entries are not always repeated.
How the values were obtained:
hiPSC derived sebocytes = test: In vitro lipogenesis inhibition in sebocytes derived from iPS with three ethnicities; assay type: cell-based, human; conditions: 10 μM (RA10), each ethnicity, arachidonic acid induced
[1] = test system: Propionibacterium acnes (C. acnes) phylotype IA1 ATCC 6919; test: MIC evaluation, optical density and percentage of inhibition; assay type: cell-based
From the text: (§1) The minimum inhibitory concentration of the following active ingredients has been assessed: • Mangifera indica extract (in propanediol/water 75/25); • Vehicule (propanediol/water 75/25, expressed as Activolo3-75%); • “Pool Mangiferin” which is the pure molecule mangiferin at the same concentration in the Mangifera indica extract in propanediol/water 75/25. • “Pool Mangifera” with is the mix of the 4 molecules (mangiferin, maclurin-C-glucoside, irifluophenone-C-glucoside, gallotanin) at the same concentration in the Mangifera indica extract in propane-diol/water 75/25. […] After two days, the bacterial concentration was adjusted in reinforced clostridial broth to obtain a solution at 1.106 CFU/ml (5.104 CFU/well). […] Concentrations are expressed in % (m/v). […] The diluted bacterial suspension was added to columns 2 to 12. RCB medium was added to column 1 as negative control. Optical density was determined, which correlates to the bacterial growth.

[2] = test system: C. granulosum (ATCC 25564); test: as above; assay type: cell-based, Cutibacterium granulosum
From the text: as §1

[3] = test system: H. influenzae (ATCC 49766); test: as above; assay type: cell-based, Haemophilus influenza
From the text: The minimum inhibitory concentration of the following active ingredients has been assessed: • Mangifera indica extract (in propanediol/water 75/25); • Vehicule (propanediol/water 75/25, expressed as Activolo3-75%); • “Pool Mangiferin” which is the pure molecule mangiferin at the same concentration in the Mangifera indica extract in propanediol/water 75/25. • “Pool Mangifera” with is the mix of the 4 molecules (mangiferin, maclurin-C-glucoside, irifluophenone-C-glucoside, gallotanin) at the same concentration in the Mangifera indica extract in propane-diol/water 75/25.
H. influenzae (ATCC 49766) was cultured in Mueller Hinton broth as recommended by ATCC with 5% CO2. The Bacterial concentration was adjusted in Mueller Hinton broth to obtain a solution at 1.106 CFU/ml (5.104 CFU/well) (launch of culture at D-2). […] Two day later, the inhibition of H. influenzae was evaluated using Colony counter IUL instruments, flash and go model (reading at D2).
Concentrations are expressed in % (m/v).
The diluted bacterial suspension was added to columns 2 to 12. RCB medium was added to column 1 as negative control.
Optical density was determined, which correlates to the bacterial growth. Thereafter, an inhibition value (%) was determined for each condition using the following formula: […]
The percentage of inhibition must be higher or equal than 90% to reach the MIC.

S. aureus (ATCC 33592) = test: as above; assay type: cell-based, Staphylococcus aureus
From the text: The minimum inhibitory concentration of the following active ingredients has been assessed: • Mangifera indica extract (in propanediol/water 75/25); • Vehicule (propanediol/water 75/25, expressed as Activolo3-75%); • “Pool Mangiferin” which is the pure molecule mangiferin at the same concentration in the Mangifera indica extract in propanediol/water 75/25. • “Pool Mangifera” with is the mix of the 4 molecules (mangiferin, maclurin-C-glucoside, irifluophenone-C-glucoside, gallotanin) at the same concentration in the Mangifera indica extract in propane-diol/water 75/25. S. aureus: The day before the experiment S. aureus (ATCC 33592) was plated and grown overnight at 37° C. Colonies were resuspended in 5 mL of TSB (Tryptic Soy Broth) to obtain a 0.5 McFarland D O (≈1.10^8 CFU/ml) (launch of culture at D-1). […] Concentrations are expressed in % (m/v). […] The diluted bacterial suspension was added to columns 2 to 12. RCB medium was added to column 1 as negative control. Optical density was determined, which correlates to the bacterial growth.

[4] = test system: human sebaceous glands of skin explants; test: Ex vivo sebum quantification, lipids of sebaceous glands by GC/MS; assay type: cell-based
Protocol: Skin explants from lifting of 3 donors (average 56.7 years old) were treated in systemic every day during 5 days in presence of dihydrotestosterone (DHT) at 30UM to induce an increase of lipogenesis mimicking a high production of sebum condition (stimulated condition) or left untreated (control condition). In parallel, skin explants were treated in presence of 0.5% of dibenzoyle peroxide (POB, positive reference) or with the Mangifera indica extract at 1% and 2%.
The tissues are extracted with an aqueous cocktail overnight at 4° C. They are then treated to take off the epidermis. A specific technique is used to recover the glands attached to these hair shafts.
After rinsing in an isotonic medium, the epidermis and its appendages are transferred to a watch glass. The sebaceous glands attached to the hair shaft of hair follicles are cut at the level of the pilosebaceous canal and deposited against the walls of the recovery vials. The sebaceous glands are recovered after dilaceration of the epidermal fragments. The glands are collected in a batch of 10 units. A washing of the glands is then performed to eliminate any contaminations of non-sebaceous origin. The sebum is then extracted with an organic cocktail overnight at room temperature. From this lipid extract, purification was carried out in order to isolate the different classes of lipids.
The identification and quantification of the different classes of lipids was realized by GC/MS.
The results are expressed in percent of the stimulated control (Untreated+DHT 30 μM). Bonferroni test multi comparison was used to do statistical analysis with #p<0.1, *p<0.05, **p<0.01, ***p<0.001.

[5] = test system: sebaceous glands of skin explants NativeSkin; test: Ex vivo sebaceous gland 3D volume in skin explants; assay type: cell-based, human; conditions: linoleic acid at 10% in Carbopol, 7 days, vs control
Protocol: The test was carried out on 4 skin explants NativeSkin® (average 40.75 years old) from pelvic area, a full-thickness skin biopsy embedded in a solid and nourishing matrix while its epidermal surface is left in contact with air. The skin biopsy is firmly embedded in the matrix that prevents any lateral diffusion of topically applied formulations. The skin explants were treated topically once a day for 7 days in presence of linoleic acid at 10% in Carbopol Ultrez 10 in order to stimulate the lipogenesis and mimic the condition of sebum excess (stimulated condition) or treated with Carbopol only (control condition). This induction mimics a high production of sebum. In parallel, skin explants were treated in presence of Mangifera indica extract at 1% and 2% formulated in Carbopol. After treatment, skin explants were fixed in formalin. After fixation, skin explants were cleared with methanol and a mix of Benzyl Benzoate and Benzyl Alcohol. All samples were observed by fluorescence light sheet microscopy (SPIM, homemade fabrication). Stack of images were taken per sample. 3D pictures of the glands were reconstructed and the size of each sebaceous gland was quantified using Amira® software. Results were represented with the mean volume of sebaceous gland +/−standard error to the mean. […] The results are expressed in percent of the stimulated control (10% linoleic acid). […]

[6] = test system: human sebocyte cell line SEBO662AR; test: In vitro lipogenesis inhibition in human sebocytes cell line (Bodipy lipid labeling); assay type: cell-based
Protocol: The sebocytes were seeded in 96-well plates (50 000 cells/well) and cultured for 24 hours in culture medium. The medium was then removed and replaced by assay medium containing the tested products including Mangifera indica extract at 0.3%, Mangiferin alone or pooled active molecules (four main phytomarkers) at their equivalent dosage in the extract at 0.3%. In the control assay medium, no product was contained. The cells were preincubated for 4 hours at those conditions. Then, the lipogenic mix (containing vitamin C, vitamin D3, insulin and calcium, and no androgens) was added in order to mimic the condition of excess of sebum, and the cells were incubated for 7 days. At mid-term, i.e. after 3 days of incubation, half of the medium was removed and the treatments were renewed (including lipogenic mix stimulation). […]
At the end of the incubation, the cells were rinsed, fixed and permeabilized. […] The labeling was quantified by the measurement of the fluorescence intensity normalized to the total number of cells (Integration of numerical data with the Developer Toolbox 1.5, GE Healthcare software). Results were expressed as Fluorescence intensity normalized to the number of cells, % stimulated control and % inhibition. The fluorescence intensity was analyzed exclusively in the lipid droplets (image analysis program based on object segmentation). […]

[7] = Ciprofloxacin 16 10^−4 % (m/v), plate col. 8-12
[8] = DHT 30 μM stimulation vs untreated
[9] = POB at 0.5%, DHT stimulated, 5 days

## CC1=C(/C=C/C(C)=C/C=C/C(C)=C\C(=O)O)C(C)(C)CCC1 [13-cis-retinoic-acid]
hiPSC derived sebocytes
  lipids production: significant reduction

## O=C(O)c1cn(C2CC2)c2cc(N3CCNCC3)c(F)cc2c1=O [Ciprofloxacin, reference compound]
[1]; [7]
  Percentage of inhibition, C. acnes: 99.3% and 98.8%
[1]; Ciprofloxacin from 1×10^−4%
  inhibition of P. acnes (FIG. 9): 99%
[1]; Ciprofloxacin, text of Table 3b
  inhibition of P. acnes: 99%
[2]; [7]
  Percentage of inhibition, C. granulosum: 97.8% and 99.0% and 98.5%
[2]; Ciprofloxacin, text of Table 4b
  inhibition of C. granulosum: 99%
[3]; [7]
  Percentage of inhibition, H. influenza: 99.7% and 99.0%
[3]; Ciprofloxacin, text of Table 6b
  inhibition of H. influenza: 99%
S. aureus (ATCC 33592); [7]
  Percentage of inhibition, S. aureus: 99.4%
S. aureus (ATCC 33592); Ciprofloxacin, text of Table 5b
  inhibition of S. aureus: 99%

## C[C@]12CCC(=O)C[C@@H]1CC[C@@H]1[C@@H]2CC[C@]2(C)[C@@H](O)CC[C@@H]12 [DHT, dihydrotestosterone]
[4]; [8]
  cholesterol content of sebum: no effect
  free fatty acids content of sebum: significant increase
  squalene content of sebum: significant increase
  triglycerides content of sebum: significant increase

## CCCCC/C=C\C/C=C\CCCCCCCC(=O)O [Linoleic acid, linoleic acid]
[5]
  change of 3D volume of sebaceous glands: +37%

## O=c1c2cc(O)c(O)cc2oc2cc(O)c([C@@H]3O[C@H](CO)[C@@H](O)[C@H](O)[C@H]3O)c(O)c12 [Mangiferin]
[6]; Mangiferin at the same amount as available in the extracts
  reduction of lipogenesis compared with lipogenic mix condition: −22%

## CCCCCCCCCCCCCCOc1ccc(C(=O)OCC(=O)N(C)CC(=O)OCC)o1 [Olumacostat glasaretil, reference compound]
[6]; Olumacostat glasaretyl at 1 μm, 7 days
  reduction of lipid production compared with lipogenic mix condition: −37%

## O=C(OOC(=O)c1ccccc1)c1ccccc1 [POB, dibenzoyle peroxide]
[4]; [9]
  free fatty acids content of sebum: significant reduction
  squalene content of sebum: significant reduction
  triglycerides content of sebum: significant reduction

Source: patent US20250352458A1, “IMPROVEMENTS IN OR RELATING TO EXTRACTS” (Givaudan SA, priority 2020, published 2025)
